Results taken from ChEMBL document CHEMBL1154965, “3-(Arylsulfonyl)-1-(azacyclyl)-1H-indoles are 5-HT(6) receptor modulators” (Bioorg Med Chem Lett, 2010).

What was measured:
[1] = target: T1, 5-hydroxytryptamine receptor 6 (Homo sapiens, UniProt P50406); assay: Displacement of [3H]LSD from human 5-HT6 receptor expressed in human HeLa cells after 2 hrs; format: cell-based
[2] = target: T1, 5-hydroxytryptamine receptor 6; assay: Agonist activity at human 5-HT6 receptor expressed in human HeLa cells assessed as effect on 5HT-induced intracellular cAMP level after 10 mins by radioimmunoassay; format: functional, cell-based
[3] = target: T1, 5-hydroxytryptamine receptor 6; assay: Agonist activity at human 5-HT6 receptor expressed in human HeLa cells assessed as effect on 5HT-induced intracellular cAMP level after 10 mins by radioimmunoassay relative to serotonin; format: functional, cell-based
[4] = target: T1, 5-hydroxytryptamine receptor 6; assay: Antagonist activity at human 5-HT6 receptor expressed in human HeLa cells assessed as inhibition of 5HT-induced intracellular cAMP level after 10 mins by radioimmunoassay relative to serotonin; format: functional, cell-based
[5] = target: T1, 5-hydroxytryptamine receptor 6; assay: Antagonist activity at human 5-HT6 receptor expressed in human HeLa cells assessed as inhibition of 5HT-induced intracellular cAMP level after 10 mins by radioimmunoassay; format: functional, cell-based

T1 sequence (P50406 whole entry): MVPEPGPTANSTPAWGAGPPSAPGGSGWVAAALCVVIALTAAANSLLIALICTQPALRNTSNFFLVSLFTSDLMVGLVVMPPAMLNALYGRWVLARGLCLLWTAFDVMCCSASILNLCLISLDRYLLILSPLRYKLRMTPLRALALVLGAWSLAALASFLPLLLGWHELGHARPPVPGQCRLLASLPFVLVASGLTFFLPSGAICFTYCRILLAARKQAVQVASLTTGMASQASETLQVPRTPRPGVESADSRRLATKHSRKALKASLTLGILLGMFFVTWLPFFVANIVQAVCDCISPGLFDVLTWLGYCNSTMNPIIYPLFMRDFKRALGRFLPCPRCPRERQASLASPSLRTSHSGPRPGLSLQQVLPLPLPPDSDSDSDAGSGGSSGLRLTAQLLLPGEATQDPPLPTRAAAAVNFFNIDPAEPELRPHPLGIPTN

Row | Ki [1] | EC50 [2] | Emax [3] | Imax [4] | IC50 [5] | Compound
1 | 72 nM | – | – | – | – | O=S(=O)(c1cccc(F)c1)c1cn(C2CCNC2)c2cc(Cl)ccc12 (stereo not drawn)
2 | 18 nM | – | – | – | – | O=S(=O)(c1cccc(F)c1)c1cn(C2CCNC2)c2cccc(F)c12 (stereo not drawn)
3 | 16 nM | 203 nM | 50% | – | – | CCN1CCCC(n2cc(S(=O)(=O)c3cccc(F)c3)c3cc(OC)ccc32)C1 (stereo not drawn)
4 | 6 nM | – | – | 98% | 60 nM | CN1CCC(n2cc(S(=O)(=O)c3cccc4ccccc34)c3ccccc32)C1 (stereo not drawn)
5 | 1.5 nM | – | – | 64% | 82 nM | O=S(=O)(c1cn(C2CCNC2)c2ccccc12)c1cccc2cccnc12 (stereo not drawn)
6 | 18 nM | – | – | – | – | O=S(=O)(c1cccc(F)c1)c1cn(C2CCNC2)c2cc(F)ccc12 (stereo not drawn)
7 | – | – | – | 85% | 18 nM | O=S(=O)(c1cccc(F)c1)c1cn(C2CCCNC2)c2ccc(F)cc12 (stereo not drawn)
8 | 5 nM | 60 nM | 70% | – | – | O=S(=O)(c1ccccc1)c1cn(C2CCNC2)c2ccccc12 (stereo not drawn)
9 | 5 nM | – | – | 70% | 94 nM | CN1CCC(n2cc(S(=O)(=O)c3cccc(F)c3)c3cc(F)ccc32)C1 (stereo not drawn)
10 | 7.3 nM | 31 nM | 52% | – | – | CCN1CCCC(n2cc(S(=O)(=O)c3ccccc3)c3ccccc32)C1 (stereo not drawn)
11 | 5.6 nM | 592 nM | 71% | – | – | O=S(=O)(c1cn(C2CCCNC2)c2ccccc12)c1cccc2cccnc12 (stereo not drawn)
12 | – | 82 nM | 99% | – | – | O=S(=O)(c1ccccc1)c1cn(C2CCCNC2)c2ccccc12 (stereo not drawn)
13 | 9.6 nM | 38 nM | 50% | – | – | O=S(=O)(c1cccc(F)c1)c1cn(C2CCNC2)c2ccc(F)cc12 (stereo not drawn)
14 | 23.3 nM | – | – | 100% | 107 nM | O=S(=O)(c1cccc2ccccc12)c1cn(C2CCNC2)c2ccccc12 (stereo not drawn)
15 | 4.7 nM | 68 nM | 38% | – | – | O=S(=O)(c1cccc(F)c1)c1cn(C2CCNC2)c2ccccc12 (stereo not drawn)
16 | 2.8 nM | – | – | 97% | 76 nM | CN1CCC(n2cc(S(=O)(=O)c3cccc4cccnc34)c3ccccc32)C1 (stereo not drawn)
17 | 3.2 nM | 125 nM | 48% | – | – | O=S(=O)(c1cccc(Cl)c1)c1cn(C2CCNC2)c2ccccc12 (stereo not drawn)
18 | 7.1 nM | – | – | 87% | 107 nM | CN1CCCC(n2cc(S(=O)(=O)c3cccc4ccccc34)c3ccccc32)C1 (stereo not drawn)
19 | 4.6 nM | – | – | 100% | 80 nM | COc1ccc2c(S(=O)(=O)c3cccc(Cl)c3)cn(C3CCNC3)c2c1 (stereo not drawn)
20 | 6 nM | 56 nM | 78% | – | – | O=S(=O)(c1cccc(F)c1)c1cn(C2CCCNC2)c2ccccc12 (stereo not drawn)
21 | 10.7 nM | 73 nM | 75% | – | – | COc1ccc2c(c1)c(S(=O)(=O)c1cccc(F)c1)cn2C1CCCNC1 (stereo not drawn)
22 | 1.3 nM | – | – | 86% | 17 nM | CN1CCC(n2cc(S(=O)(=O)c3cccc(Cl)c3)c3ccccc32)C1 (stereo not drawn)
23 | 15 nM | – | – | – | – | O=S(=O)(c1cccc(F)c1)c1cn(C2CCNC2)c2ccc(Cl)cc12 (stereo not drawn)
24 | 113 nM | – | – | – | – | O=S(=O)(c1ccccc1)c1cn(C2CCN(Cc3ccccc3)C2)c2ccccc12 (stereo not drawn)
25 | 3.5 nM | 398 nM | 49% | – | – | CN1CCC(n2cc(S(=O)(=O)c3cccc(F)c3)c3ccccc32)C1 (stereo not drawn)
